{
  "source": "patent US11802120B2",
  "about": "“Fused cyclic urea derivatives as CRHR2 antagonist” (RaQualia Pharma Inc., priority 2018, dated 2023)",
  "data": [
    {"target": "T1, human CRHR2-alpha (Homo sapiens, UniProt Q13324)", "T1 sequence (Q13324 1-411)": "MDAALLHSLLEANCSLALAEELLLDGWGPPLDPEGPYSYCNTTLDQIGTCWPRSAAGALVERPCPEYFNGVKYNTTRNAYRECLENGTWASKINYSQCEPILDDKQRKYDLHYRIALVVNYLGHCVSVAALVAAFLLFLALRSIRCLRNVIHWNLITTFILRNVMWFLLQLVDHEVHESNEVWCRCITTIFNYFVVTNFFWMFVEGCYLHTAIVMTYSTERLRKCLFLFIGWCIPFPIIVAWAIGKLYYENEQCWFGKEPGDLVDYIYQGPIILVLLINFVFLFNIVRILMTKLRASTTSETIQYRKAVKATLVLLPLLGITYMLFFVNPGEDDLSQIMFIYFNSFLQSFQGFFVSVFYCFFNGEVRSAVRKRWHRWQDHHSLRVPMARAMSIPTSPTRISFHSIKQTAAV", "experiment": "cAMP functional assay for human CRHR2 (LANCE Ultra cAMP, TR-FRET)", "assay_type": "cell-based", "details": "CHO-K1 cells expressing human CRHR2-alpha, agonist human urocortin2 at EC80, cAMP; read-out: IC50 against CRHR2", "how_it_was_run": "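Inhibition of agonist-driven cAMP was assessed in recombinant CHO-K1 cells at 25° C, using 30 min compound pretreatment and 30 min stimulation with EC80 human urocortin2 (CRHR2) or CRF (CRHR1). IC50 came from dose-response fitting.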", "units": {"IC50": "nM"}, "values": [
      {"smiles": "O=C(N[C@H]1CC[C@H](Cn2c(=O)n(-c3ccc(N4CCCCC4=O)nc3)c3ccccc32)CC1)c1cc(Cl)cnc1C(F)F", "note": "[Example 509, 5-chloro-2-(difluoromethyl)-N-((1r,4r)-4-((2-oxo-3-(6-(2-oxopiperidin-1-yl)pyridin-3-yl)-2,3-dihydro-1H-benzo[d]imidazol-1-yl)methyl)cyclohexyl)nicotinamide]", "IC50": "< 300"},
      {"smiles": "O=C(N[C@H]1CC[C@H](Cn2c(=O)n(-c3cccc(N4CCCC4=O)n3)c3ccccc32)CC1)c1cc(Cl)cnc1C(F)F", "note": "[Example 776, 5-chloro-2-(difluoromethyl)-N-((1r,4r)-4-((2-oxo-3-(6-(2-oxo-pyrrolidin-1-yl)pyridin-2-yl)-2,3-dihydro-1H-benzo[d]imidazol-1-yl)methyl)cyclo-hexyl)nicotinamide]", "IC50": "< 300"},
      {"smiles": "Cc1ncc(Cl)cc1C(=O)N[C@H]1CC[C@H](Cn2c(=O)n(-c3cncc(-c4ccn(C)n4)c3)c3ccccc32)CC1", "note": "[Example 652, 5-chloro-2-methyl-N-((1r,4r)-4-((3-(5-(1-methyl-1H-pyrazol-3-yl)pyridin-3-yl)-2-oxo-2,3-dihydro-1H-benzo[d]imidazol-1-yl)methyl)cyclohexyl)nicotinamide]", "IC50": "< 300"},
      {"smiles": "Cc1ccc(-n2c(=O)n(C[C@H]3CC[C@H](NC(=O)c4cc(Cl)cnc4C)CC3)c3ccccc32)cc1CO", "note": "[Example 127, 5-chloro-N-((1r,4r)-4-((3-(3-(hydroxymethyl)-4-methylphenyl)-2-oxo-2,3-dihydro-1H-benzo[d]imidazol-1-yl)methyl)cyclo-hexyl)-2-methylnicotinamide]", "IC50": "< 300"},
      {"smiles": "Cc1ncc(Cl)cc1C(=O)N[C@H]1CC[C@H](Cn2c(=O)n(-c3cncc(-c4cnco4)c3)c3ccccc32)CC1", "note": "[Example 485, 5-chloro-2-methyl-N-((1r,4r)-4-((3-(5-(oxazol-5-yl)pyridin-3-yl)-2-oxo-2,3-dihydro-1H-benzo[d]imidazol-1-yl)methyl)cyclohexyl)nicotinamide]", "IC50": "< 300"},
      {"smiles": "Cn1ncc2cc(-n3c(=O)n(C[C@H]4CC[C@H](NC(=O)c5cc(Cl)cnc5C(F)F)CC4)c4cccnc43)ccc21", "note": "[Example 547, 5-chloro-2-(difluoromethyl)-N-((1r,4r)-4-((3-(1-methyl-1H-indazol-5-yl)-2-oxo-2,3-dihydro-1H-imidazo[4,5-b]pyridin-1-yl)methyl)cyclo-hexyl)nicotinamide]", "IC50": "< 300"},
      {"smiles": "C[C@@H](Oc1ccc(-n2c(=O)n(C[C@H]3CC[C@H](NC(=O)c4cc(Cl)cnc4C(F)F)CC3)c3ccccc32)cn1)C(N)=O", "note": "[Example 504, N-((1R,4r)-4-((3-(6-(((R)-1-amino-1-oxopropan-2-yl)oxy)pyridin-3-yl)-2-oxo-2,3-dihydro-1H-benzo[d]imidazol-1-yl)methyl)cyclohexyl)-5-chloro-2-(difluoromethyl) nicotinamide]", "IC50": "< 300"},
      {"smiles": "O=C(N[C@H]1CC[C@H](Cn2c(=O)n(-c3ccc4cncn4c3)c3ccccc32)CC1)c1cc(Cl)cnc1C(F)(F)F", "note": "[Example 327, 5-chloro-N-((1r,4r)-4-((3-(imidazo[1,5-a]pyridin-6-yl)-2-oxo-2,3-dihydro-1H-benzo[d]imidazol-1-yl)methyl)cyclohexyl)-2-(trifluoromethyl)nicotinamide]", "IC50": "< 300"},
      {"smiles": "COc1ccccc1C(=O)Cn1c(=O)n(C[C@H]2CC[C@H](NC(=O)c3cc(Cl)cnc3C)CC2)c2ccccc21", "note": "[Example 10, 5-chloro-N-((1r,4r)-4-((3-(2-(2-methoxyphenyl)-2-oxoethyl)-2-oxo-2,3-dihydro-1H-benzo[d]imidazol-1-yl)methyl)cyclohexyl)-2-methylnicotinamide]", "IC50": "< 300"},
      {"smiles": "O=C(N[C@H]1CC[C@H](Cn2c(=O)n(-c3cnc(OCCO)c(F)c3)c3ccccc32)CC1)c1cc(Cl)cnc1C(F)F", "note": "[Example 638, 5-chloro-2-(difluoromethyl)-N-((1r,4r)-4-((3-(5-fluoro-6-(2-hydroxyethoxy)pyridin-3-yl)-2-oxo-2,3-dihydro-1H-benzo[d]imidazol-1-yl)methyl)cyclohexyl)nicotinamide]", "IC50": "< 300"},
      {"smiles": "Cc1ncc(Cl)cc1C(=O)N[C@H]1CC[C@H](Cn2c(=O)n(-c3ccc4ncoc4c3)c3ccccc32)CC1", "note": "[Example 153, N-((1r,4r)-4-((3-(benzo[d]oxazol-6-yl)-2-oxo-2,3-dihydro-1H-benzo[d]imidazol-1-yl)methyl)cyclo-hexyl)-5-chloro-2-methylnicotinamide]", "IC50": "< 300"},
      {"smiles": "O=C(N[C@H]1CC[C@H](Cn2c(=O)n(-c3ccc(N4CC5(COC5)CC4=O)nc3)c3ccccc32)CC1)c1cc(Cl)cnc1C(F)F", "note": "[Example 584, 5-chloro-2-(difluoromethyl)-N-((1r,4r)-4-((2-oxo-3-(6-(7-oxo-2-oxa-6-azaspiro[3,4]octan-6-yl)pyridin-3-yl)-2,3-dihydro-1H-benzo[d]imidazol-1-yl)methyl)cyclohexyl) nicotinamide]", "IC50": "< 300"},
      {"smiles": "Cc1ncc(Cl)cc1C(=O)N[C@H]1CC[C@H](Cn2c(=O)n(-c3cccc(-c4cnn(C)c4)c3)c3ccccc32)CC1", "note": "[Example 678, 5-chloro-2-methyl-N-((1r,4r)-4-((3-(3-(1-methyl-1H-pyrazol-4-yl)phenyl)-2-oxo-2,3-dihydro-1H-benzo[d]imidazol-1-yl)methyl)cyclohexyl)nicotinamide]", "IC50": "< 300"},
      {"smiles": "Cc1ncc(Cl)cc1C(=O)N[C@H]1CC[C@H](Cn2c(=O)n(-c3ccccc3F)c3ccccc32)CC1", "note": "[Example 33, 5-chloro-N-((1r,4r)-4-((3-(2-fluorophenyl)-2-oxo-2,3-dihydro-1H-benzo[d]imidazol-1-yl)methyl)cyclohexyl)-2-methylnicotinamide]", "IC50": "< 300"},
      {"smiles": "COCCN(C)c1ccc(-n2c(=O)n(C[C@H]3CC[C@H](NC(=O)c4cc(Cl)cnc4C)CC3)c3ccccc32)cn1", "note": "[Example 53, 5-chloro-N-((1r,4r)-4-((3-(6-((2-methoxyethyl)(methyl)amino)pyridin-3-yl)-2-oxo-2,3-dihydro-1H-benzo[d]imidazol-1-yl)methyl)cyclohexyl)-2-methylnicotinamide]", "IC50": "< 300"},
      {"smiles": "Cc1ccc(-n2c(=O)n(C[C@H]3CC[C@H](NC(=O)c4cc(Cl)ccc4C4CC4)CC3)c3ccccc32)cn1", "note": "[Example 266, 5-chloro-2-cyclopropyl-N-((1r,4r)-4-((3-(6-methyl-pyridin-3-yl)-2-oxo-2,3-dihydro-1H-benzo[d]imidazol-1-yl)methyl)cyclo-hexyl)benzamide]", "IC50": "< 300"},
      {"smiles": "Cc1ncc(Cl)cc1C(=O)N[C@H]1CC[C@H](Cn2c(=O)n(-c3ccc(C4CCC4)nc3)c3ccccc32)CC1", "note": "[Example 279, 5-chloro-N-((1r,4r)-4-((3-(6-cyclobutylpyridin-3-yl)-2-oxo-2,3-dihydro-1H-benzo[d]imidazol-1-yl)methyl)cyclohexyl)-2-methylnicotinamide]", "IC50": "< 300"},
      {"smiles": "O=C(N[C@H]1CC[C@H](Cn2c(=O)n(-c3ccc(NCCO)nc3)c3ccc(F)cc32)CC1)c1cc(Cl)cnc1C(F)F", "note": "[Example 713, 5-chloro-2-(difluoromethyl)-N-((1r,4r)-4-((6-fluoro-3-(6-((2-hydroxyethyl)amino)pyridin-3-yl)-2-oxo-2,3-di-hydro-1H-benzo[d]imidazol-1-yl)methyl)cyclohexyl) nicotinamide]", "IC50": "< 300"},
      {"smiles": "CNc1cnc(-n2c(=O)n(C[C@H]3CC[C@H](NC(=O)c4cc(Cl)cnc4C(F)F)CC3)c3ccccc32)cn1", "note": "[Example 391, 5-chloro-2-(difluoromethyl)-N-((1r,4r)-4-((3-(5-(methyl-amino)pyrazin-2-yl)-2-oxo-2,3-dihydro-1H-benzo[d]imidazol-1-yl)methyl)cyclohexyl) nicotinamide]", "IC50": "< 300"}
    ]}
  ]
}
